Here are results for two substances from patent US6906170B1 (Yeda Research and Development Co. Ltd., priority 1998, dated 2005).

Assay type in all cases: cell-based
Experiment [1] relates to human T cells. Description: IL-2-induced T cell adhesion to LN, CO-IV and FN after peptide pre-treatment. The conditions noted are these: pre-exposed to peptide 10 pg/ml, then IL-2 10 U/ml. As for the experimental part:
The T cells were then seeded onto microtiter wells that were pre-coated (1 μg/well) with the various ECM glycoproteins. T cell adhesion was measured 30 min later.
(§1) T cell adhesion assays. Human T cells were purified from the peripheral blood of healthy donors, and T cell adhesion to immobilized protein substrates was examined as follows: Human leukocytes were isolated on a Ficoll gradient, washed, and incubated (2 h, 37° C., 7.5% CO2, humidified atmosphere) on petri dishes. The non-adherent cells were then collected and incubated (1 h, 37° C., 7.5% CO2, humidified atmosphere) on nylon wool columns (Novamed Ltd., Jerusalem, Israel). Unbound cells were eluted from the columns by extensive washings. The resulting cell population was always >92% T cells. […] After 4-6 h at 37° C., the wells were washed and ^51[Cr]-labeled T cells were added to the wells, 10^5 cells/100 μl of adhesion medium (RPMI-1640 supplemented with 0.1% BSA, 1% sodium pyruvate, 1% HEPES buffer). The microtiter plates containing the cells were incubated (30 min, 37° C.) in a humidified, 7.5% CO2 atmosphere, and then washed. The adherent cells were lysed, and the resulting supernatants were removed and analyzed in a γ-counter. For each experimental group, the results were expressed as the mean percentage ±SD of bound T cells from quadruplicate wells.
Ile-Val-Leu, Arg-Met-Leu-Thr (SEQ ID NO:2) and […](SEQ ID NO:1) inhibit T cell adhesion to LN, CO-IV and FN. The next experiment was designed and performed to verify that the three IL-2-derived peptides indeed affect T cell interactions with ECM glycoproteins other than FN. […] The treated cells were then added to microtiter wells coated with CO-IV, LN, and FN.

The test system of experiment [2] is human T cells. Nature of the experiment: IL-2-induced T cell adhesion to fibronectin (FN). Particulars: for concentration giving maximum inhibition of IL-2-induced T cell adhesion to FN / concentration giving maximum inhibition of IL-2-induced T cell adhesion to FN (molar) / inhibition of adhesion of IL-2-activated T cells to FN: IL-2 10 U/ml; for inhibition of adhesion of IL-2-activated T cells to FN: 30 min at 37° C., dose range; for anti-adhesive effect after removal of peptide prior to IL-2 activation: T cells pre-treated 1 pg/ml, washed, then IL-2 and FN-coated wells. As for the experimental part:
as §1
The effect of synthetic peptides, with putative amino acid compositions corresponding to fractions 2 and 8, on IL-2-induced T cell adhesion to FN. […] These three peptides were synthesized, and their effects on IL-2-induced T cell adhesion to FN were studied. […] The inhibitory dose-response curves of Ile-Val-Leu and […](SEQ ID NO:1) are similar to those of the HPLC fractions 2 and 8, respectively, from which they were derived. […]

Experiment [3] concerns human T cells. Description: Secretion of TNF-α and IFN-γ from proliferating T cells. The conditions noted are these: peptide 1 to 100 pg/ml; not shown.

No end group written: not given here.

As to “Glu-Phe-Leu-Asn-Arg-Trp-Ile-Thr (EFLNRWIT; not fully specified (C-terminus); printed as Glu-Phe-Leu-Asn-Arg-Trp-Ile-Thr) [pep2]”, in experiment [1], the “inhibition of T cell adhesion to CO-IV, LN and FN” value was “inhibit T cell adhesion to the three major cell-adhesive glycoproteins of the ECM”. For the same substance, in experiment [2], the “concentration giving maximum inhibition of IL-2-induced T cell adhesion to FN” value amounted to 1 pg/mL; the “concentration giving maximum inhibition of IL-2-induced T cell adhesion to FN (molar)” value turned out to be 0.92 pM; the “inhibition of adhesion of IL-2-activated T cells to FN” value is given as “inhibited, in a dose-dependent manner”; the “anti-adhesive effect after removal of peptide prior to IL-2 activation” value is recorded as “most of the anti-adhesive effects of the three peptides persevered”. Besides, the “inhibition of secretion of TNF-α and IFN-γ from proliferating T cells” value in experiment [3] is “nor did these peptides inhibit the secretion of TNF-α and IFN-γ”.

Turning to Ile-Val-Leu [pep1], the “inhibition of T cell adhesion to CO-IV, LN and FN” value in experiment [1] is “inhibit T cell adhesion to the three major cell-adhesive glycoproteins of the ECM”. Further, in experiment [2], the “concentration giving maximum inhibition of IL-2-induced T cell adhesion to FN” value worked out at 1 pg/mL; the “concentration giving maximum inhibition of IL-2-induced T cell adhesion to FN (molar)” value is listed as 2.91 pM; the “inhibition of adhesion of IL-2-activated T cells to FN” value is given as “inhibited, in a dose-dependent manner”; the “anti-adhesive effect after removal of peptide prior to IL-2 activation” value is “most of the anti-adhesive effects of the three peptides persevered”. Besides, the “inhibition of secretion of TNF-α and IFN-γ from proliferating T cells” value in experiment [3] was “nor did these peptides inhibit the secretion of TNF-α and IFN-γ”.
